According to patent US20110281794A1, “C[…]-[…] A[…] ADM[…] A BRAIN-DEAD, HEART-BEATING POTENTIAL ORGAN DONOR” (VIVOLINE MEDICAL AB, priority 2008, published 2011):

How the values were obtained:
[1] = molecular target: NET (nor-epinephrine transporter) (Homo sapiens, UniProt P23975); details: cited from earlier work
[2] = in vivo; cited from earlier work
[3] = cited from earlier work
[4] = test system: brain-dead, heart-beating cadaver of a pig; assay: Blood pressure and organ maintenance in brain-dead, heart-beating pig under intravenous infusion; assay type: in vivo
Experimental: The following ingredients: 1 mg (1 ml) adrenaline, 1 mg (1 ml) nor-adrenaline, 0.3 mg (3 ml) T3, 300 mg (3 ml) cortisone, […] (9 ml) Minirin and 1 mg (3 ml) cocaine were dissolved in 50 ml physiological sodium chloride solution.
For reducing the risk of diabetes insipidus, a bolus of […] Minirin was given at the start of the treatment.
The inventor has performed more than 20 experiments with pigs and using cocaine in combination with adrenaline and nor-adrenaline.
FIG. 4 is a diagram over blood pressure during an experiment similar to Experiment 1.

alfa-1 = assay: Potency as replacement of nor-adrenaline (alfa-1-agonist)
From the text: In some embodiments, the adrenaline and/or nor-adrenaline may be partly or entirely replaced by an equivalent substance. For example, phenylephrine is an alfa-1-agonist and may replace nor-adrenaline.

Sequence of NET (nor-epinephrine transporter) (P23975 whole entry, species assumed): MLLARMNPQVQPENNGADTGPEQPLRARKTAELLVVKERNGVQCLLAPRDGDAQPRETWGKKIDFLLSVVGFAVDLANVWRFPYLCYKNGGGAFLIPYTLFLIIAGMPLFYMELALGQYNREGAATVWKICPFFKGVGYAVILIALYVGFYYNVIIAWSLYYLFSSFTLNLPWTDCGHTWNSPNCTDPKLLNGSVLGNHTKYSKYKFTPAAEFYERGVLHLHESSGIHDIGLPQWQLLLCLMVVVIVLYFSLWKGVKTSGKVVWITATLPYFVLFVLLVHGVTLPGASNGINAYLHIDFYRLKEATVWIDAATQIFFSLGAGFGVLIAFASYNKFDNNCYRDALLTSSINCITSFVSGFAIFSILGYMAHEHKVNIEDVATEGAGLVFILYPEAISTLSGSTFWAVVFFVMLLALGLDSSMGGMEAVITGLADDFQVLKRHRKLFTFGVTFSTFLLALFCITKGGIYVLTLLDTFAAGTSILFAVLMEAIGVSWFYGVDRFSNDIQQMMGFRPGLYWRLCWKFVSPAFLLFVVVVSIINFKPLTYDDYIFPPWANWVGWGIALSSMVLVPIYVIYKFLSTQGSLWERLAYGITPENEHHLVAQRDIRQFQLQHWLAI

## CNCCCN1c2ccccc2CCc2ccc(Cl)cc21 [Norclomipramine]
[1]
  potency among NET inhibitors: highest

## CCN(CC)CC(=O)Nc1c(C)cccc1C [Lidocaine]
[2]
  effect of infusion on blood pressure: vasodilatation and a lowering of the blood pressure

## NC(=O)CC[C@@H]1NC(=O)[C@H](Cc2ccccc2)NC(=O)[C@H](Cc2ccc(O)cc2)NC(=O)[C@@H](N)CSSC[C@@H](C(=O)N2CCC[C@H]2C(=O)N[C@@H](CCCN=C(N)N)C(=O)NCC(N)=O)NC(=O)[C@H](CC(N)=O)NC1=O [ADH]
[3]
  half-life-time: about 15 minutes

## CNCCCN1c2ccccc2CCc2ccccc21 [desipramine]
[4]; Experiment 2, infusion 1.7 to 3.2 ml/hour with adrenaline and nor-adrenaline, from a mean pressure of about 40 mmHg
  mean pressure reached on infusion: 80 mmHg
[4]; Experiment 2, infusion rate decreased to 2.5 and 1.7 ml/hour, never decreased further
  blood pressure after infusion rate was decreased: about 60 mmHg
[3]
  half-life time: 30 h

## CNC[C@H](O)c1cccc(O)c1 [phenylephrine]
alfa-1
  potency relative to nor-adrenaline (times less potent): about 5 times

## COC(=O)[C@H]1[C@@H](OC(=O)c2ccccc2)C[C@@H]2CC[C@H]1N2C [cocaine, benzoylmethyl ecgonine]
[4]; added together with nor-adrenaline, compared with cocaine
  potentiation of the effect of blood circulating nor-adrenaline (vasoconstriction): much lower levels of nor-adrenaline
[4]; more than 20 experiments with pigs, in combination with adrenaline and nor-adrenaline, over 24 hours
  blood pressure maintained at a constant level: 70 mmHg

## CNCCCC1c2ccccc2C=Cc2ccccc21 [Protriptylin]
[1]
  potency among NET inhibitors: highest

## CC(N)Cc1ccccc1 (stereo not drawn) [amphetamine, alpha-methylphenethylamine]
[4]; added at 29.5 hours to infusion solution of Experiment 1 without cocaine, constant until 36 hours
  increase of mean arterial pressure: about 15 mmHg
